Results from the supplement of paper PMC10307832.

Key:
Experiment in all cases: relative viability (nuclei count vs DMSO), 5 days (fraction); higher = more cells survive
Metformin + Linsitinib = compound: CN(C)C(=N)NC(=N)N [Metformin] + C[C@]1(O)C[C@@H](c2nc(-c3ccc4ccc(-c5ccccc5)nc4c3)c3c(N)nccn32)C1 [Linsitinib] (partner 1 µM)
Method in brief: (§1)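 Nuclei were stained with Hoechst during a one-step fixation (final 0.05% Triton X-100, 1% formaldehyde, 1 ug/ml Hoechst) carried out 5 days after dosing, then counted on 4× images. The cells, lung cancer lines in 1536-well plates, had been dosed by pin tool the day after seeding with one drug alone or a fixed anchor-drug dose plus five library-drug doses (not always all listed) in √10 steps. Relative viability is the nuclei count in treated wells divided by that in vehicle wells, and each value is the median of duplicate plates.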

Metformin + OSI-027 = compound: CN(C)C(=N)NC(=N)N [Metformin] + COc1cccc2cc(-c3nc([C@H]4CC[C@H](C(=O)O)CC4)n4ncnc(N)c34)[nH]c12 [OSI-027] (partner 0.5 µM)
Method in brief: as §1

Apatinib + Luminespib = compound: N#CC1(c2ccc(NC(=O)c3cccnc3NCc3ccncc3)cc2)CCCC1 [Apatinib] + CCNC(=O)c1noc(-c2cc(C(C)C)c(O)cc2O)c1-c1ccc(CN2CCOCC2)cc1 [Luminespib] (partner 0.01 µM)
Method in brief: as §1

Metformin + Phenformin = compound: CN(C)C(=N)NC(=N)N [Metformin] + N=C(N)NC(=N)NCCc1ccccc1 [Phenformin] (partner 250 µM)
Method in brief: as §1

Row | Cell Line | relative viability (Metformin + Linsitinib; first compound 10 µM) | relative viability (Metformin + Linsitinib; first compound 31.62 µM) | relative viability (Metformin + Linsitinib; first compound 100 µM) | relative viability (Metformin + Linsitinib; first compound 316.23 µM) | relative viability (Metformin + Linsitinib; first compound 1000 µM) | relative viability (Metformin + OSI-027; first compound 10 µM) | relative viability (Metformin + OSI-027; first compound 31.62 µM) | relative viability (Metformin + OSI-027; first compound 100 µM) | relative viability (Metformin + OSI-027; first compound 316.23 µM) | relative viability (Metformin + OSI-027; first compound 1000 µM) | relative viability (Apatinib + Luminespib; first compound 0.08 µM) | relative viability (Apatinib + Luminespib; first compound 0.253 µM) | relative viability (Apatinib + Luminespib; first compound 0.8 µM) | relative viability (Apatinib + Luminespib; first compound 2.53 µM) | relative viability (Apatinib + Luminespib; first compound 8 µM) | relative viability (Metformin + Phenformin; first compound 10 µM) | relative viability (Metformin + Phenformin; first compound 31.62 µM) | relative viability (Metformin + Phenformin; first compound 100 µM) | relative viability (Metformin + Phenformin; first compound 316.23 µM) | relative viability (Metformin + Phenformin; first compound 1000 µM)
1 | LCLC-97TM1 | 0.175 | 0.17 | 0.146 | 0.187 | 0.243 | 0.647 | 0.58 | 0.537 | 0.487 | 0.711 | 0.761 | 0.833 | 0.863 | 0.605 | 0.297 | 0.478 | 0.43 | 0.332 | 0.398 | 0.477
2 | RERF-LC-KJ | 0.835 | 0.769 | 0.857 | 0.768 | 0.829 | 0.521 | 0.503 | 0.492 | 0.394 | 0.415 | 1.11 | 1.35 | 1.07 | 1.22 | 1.02 | 0.489 | 0.466 | 0.456 | 0.428 | 0.499
3 | NCI-H1793 | 1.3 | 1.22 | 1.14 | 1 | 1.16 | 0.395 |  | 0.315 | 0.238 | 0.253 | 0.185 | 0.183 | 0.157 | 0.172 | 0.193 | 0.431 |  | 0.403 | 0.366 | 0.562
4 | NCI-H2405 | 0.845 | 0.92 | 0.981 | 0.882 | 0.436 | 0.567 | 0.573 | 0.608 | 0.606 | 0.559 | 0.675 | 0.695 | 0.653 | 0.621 | 0.491 | 0.379 | 0.362 | 0.362 | 0.393 | 0.326
5 | NCI-H1792 |  | 0.742 | 0.803 | 0.632 | 0.664 |  | 0.91 | 0.909 | 0.697 | 0.678 | 0.495 | 0.521 | 0.43 | 0.308 | 0.274 | 0.412 | 0.442 | 0.396 | 0.462 | 0.383
6 | UMC-11 | 1.07 | 1.09 | 1.12 | 1.04 | 1.14 | 0.594 | 0.549 | 0.539 | 0.426 | 0.505 | 1.13 | 1.02 | 0.926 | 1.04 | 0.886 | 0.322 | 0.317 | 0.321 | 0.312 | 0.351
7 | NCI-H727 | 0.289 | 0.342 | 0.304 | 0.298 | 0.35 | 0.543 | 0.726 | 0.736 | 0.545 | 0.48 | 0.307 | 0.31 | 0.393 | 0.387 | 0.233 | 0.321 | 0.707 | 0.585 |  | 0.573
8 | NCI-H650 | 0.859 | 0.955 | 0.845 | 0.983 | 1.3 | 0.517 | 0.549 | 0.535 | 0.584 | 0.607 | 0.774 | 0.831 | 0.872 | 0.645 | 0.524 | 0.446 | 0.509 | 0.357 | 0.436 | 0.494
9 | NCI-H838 | 1.04 | 1.09 | 1.05 | 0.988 | 1.02 | 0.544 | 0.624 | 0.563 | 0.508 | 0.515 | 0.332 | 0.286 | 0.388 | 0.282 | 0.249 | 0.709 | 0.671 | 0.661 | 0.667 | 0.749
10 | SK-LU-1 | 0.947 | 1.08 | 0.674 | 1.08 | 1.03 | 0.32 | 0.389 | 0.354 | 0.318 | 0.299 | 0.196 | 0.201 | 0.202 | 0.182 | 0.186 | 0.608 | 0.532 | 0.501 | 0.424 | 0.54
11 | SW 1573 | 0.916 | 0.811 | 0.969 | 0.72 | 0.996 | 0.68 | 0.756 | 0.611 | 0.4 | 0.419 | 0.318 | 0.184 | 0.183 | 0.162 | 0.195 | 0.422 | 0.387 | 0.492 | 0.414 | 0.364
12 | LK-2 | 0.906 | 0.996 | 0.948 | 0.694 | 0.81 | 0.194 | 0.169 | 0.199 | 0.195 | 0.209 | 0.185 | 0.178 | 0.187 | 0.209 | 0.188 | 0.758 | 0.636 | 0.374 | 0.381 | 0.667
13 | NCI-H1993 | 0.719 | 0.73 | 0.838 | 0.686 | 0.705 | 0.587 | 0.603 | 0.554 | 0.507 | 0.514 | 0.885 | 0.906 | 0.886 | 0.757 | 0.673 | 0.479 | 0.481 | 0.514 | 0.532 | 0.499
14 | NCI-H1437 | 1.22 | 1.09 | 1.11 | 1.1 | 1.19 | 1.21 | 1.23 | 1.06 | 1 | 1.04 | 1.11 | 1.12 | 1.11 | 0.923 | 0.817 | 0.296 | 0.363 | 0.338 | 0.343 | 0.299
15 | H3255 | 0.942 | 1.08 | 0.961 | 0.938 | 0.873 | 0.477 | 0.654 | 0.623 | 0.457 | 0.611 | 0.791 | 0.782 | 0.811 | 0.644 | 0.829 | 0.395 | 0.365 | 0.436 | 0.338 | 0.382
16 | NCI-H322M | 1.04 | 0.954 | 0.934 | 0.864 | 0.915 | 0.54 | 0.597 | 0.604 | 0.457 | 0.46 | 0.871 | 0.845 | 0.9 | 1.01 | 1.07 | 0.839 | 0.802 | 0.809 | 0.735 | 0.746
